Assay results from ChEMBL document CHEMBL4152235, “Synthesis, anionophoric activity and apoptosis-inducing bioactivity of benzimidazolyl-based transmembrane anion transporters” (Eur J Med Chem, 2018).
Active and inactive are the calls of the source. The calls are words filed in the database; no cut-off is given here.

Key:
[1] = (§1) Ionophoric activity across pyranine dye encapsulated pH 7 egg yolk L-alpha-phosphatidylcholine-based liposomal membranes assessed as chloride ion transport by measuring induction of pH discharge at 1.95 x 10^-3 mol% after 20 mins in presence of RbCl loaded external vesicles by fluorescence method
[2] = Ionophoric activity across pyranine dye encapsulated pH 7 egg yolk L-alpha-phosphatidylcholine-based liposomal membranes assessed as chloride ion transport by measuring induction of pH discharge after 20 mins in presence of NaCl loaded external vesicles by fluorescence method relative to m-Bimbe
[3] = as §1, with “measuring initial rate constant for” for “measuring”, “1.56” for “1.95”, “10^-2” for “10^-3”, “NaCl” for “RbCl”, “method (reference value: 5.03 +/- 1.02 10^-3/min)” for “method”
[4] = (§2) Ionophoric activity across pyranine dye encapsulated pH 7 egg yolk L-alpha-phosphatidylcholine-based liposomal membranes assessed as chloride ion transport by measuring induction of pH discharge after 20 mins in presence of NaCl loaded external vesicles by fluorescence method
MCF7 [5] = assay: Cytotoxicity against human MCF7 cells assessed as reduction in cell viability after 48 hrs by MTT assay; format: functional, cell-based; conditions: MCF7, 48 h
[6] = (§3) Ionophoric activity across pyranine dye encapsulated pH 7 egg yolk L-alpha-phosphatidylcholine-based liposomal membranes assessed as chloride ion transport by measuring induction of pH discharge at 1.95 x 10^-3 mol% after 20 mins in presence of NaCl loaded external vesicles by fluorescence method
A549 [7] = assay: Cytotoxicity against human A549 cells assessed as reduction in cell viability after 48 hrs by MTT assay; format: functional, cell-based; conditions: A549, 48 h
HepG2 [8] = assay: Cytotoxicity against human HepG2 cells assessed as reduction in cell viability at 50 uM after 48 hrs by MTT assay relative to control; format: functional; conditions: HepG2, 48 h
[9] = Ionophoric activity across pyranine dye encapsulated pH 7 egg yolk L-alpha-phosphatidylcholine-based liposomal membranes assessed as chloride ion transport by measuring induction of pH discharge at 1.95 x 10^-3 mol% after 20 mins in presence of CsCl loaded external vesicles by fluorescence method
[10] = as §3, with “measuring initial rate constant for” for “measuring”, “3.91” for “1.95”, “method (reference value: 5.03 +/- 1.02 10^-3/min)” for “method”
[11] = Ionophoric activity across pyranine dye encapsulated pH 7 egg yolk L-alpha-phosphatidylcholine-based liposomal membranes assessed as iodide ion transport by measuring induction of pH discharge at 1.95 x 10^-3 mol% after 20 mins in presence of NaI loaded external vesicles by fluorescence method
[12] = Binding affinity to chloride ion assessed as 1:1 compound-Cl- complex formation at 4.1 mM using tetra(n-butyl)ammonium chloride by ESI MS spectrometric method
[13] = as §3, with “measuring initial rate constant for” for “measuring”, “7.81” for “1.95”, “method (reference value: 5.03 +/- 1.02 10^-3/min)” for “method”
[14] = Binding affinity to chloride ion at 1.5 x 10^-5M using tetra(n-butyl)ammonium chloride measured after 5 mins by spectrophotometric titration method
L02 = assay: Cytotoxicity against human LO2 cells assessed as reduction in cell viability after 48 hrs by MTT assay; format: cell-based; conditions: L02, 48 h
[15] = Ionophoric activity across lucigenin probe encapsulated pH 7 egg yolk L-alpha-phosphatidylcholine-based large unilamellar vesicles loaded with Na2SO4 assessed as chloride ion efflux at 1.56 x 10^-2mol% after 20 mins in presence of NaCl/Na2SO4 loaded external vesicles by fluorescence method
[16] = Ionophoric activity across pyranine dye encapsulated pH 7 egg yolk L-alpha-phosphatidylcholine-based liposomal membranes assessed as nitrate ion transport by measuring induction of pH discharge at 1.95 x 10^-3 mol% after 20 mins in presence of NaNO3 loaded external vesicles by fluorescence method
A549 [17] = assay: Cytotoxicity against human A549 cells assessed as reduction in cell viability at 50 uM after 48 hrs by MTT assay relative to control; format: functional; conditions: A549, 48 h
[18] = Ionophoric activity across lucigenin probe encapsulated pH 7 egg yolk L-alpha-phosphatidylcholine-based large unilamellar vesicles loaded with Na2SO4 assessed as chloride ion efflux at 1.56 x 10^-2mol% after 20 mins in presence of NaCl loaded external vesicles by fluorescence method
[19] = as §3, with “measuring initial rate constant for” for “measuring”, “9.77” for “1.95”, “10^-4” for “10^-3”, “method (reference value: 5.03 +/- 1.02 10^-3/min)” for “method”
[20] = Ionophoric activity across pyranine dye encapsulated pH 7 egg yolk L-alpha-phosphatidylcholine-based liposomal membranes assessed as chloride ion transport by measuring induction of pH discharge at 1.95 x 10^-3 mol% after 20 mins in presence of LiCl loaded external vesicles by fluorescence method
HeLa [21] = assay: Cytotoxicity against human HeLa cells assessed as reduction in cell viability at 50 uM after 48 hrs by MTT assay relative to control; format: functional
[22] = as §3, with “measuring initial rate constant for” for “measuring”, “4.88” for “1.95”, “10^-4” for “10^-3”, “method (reference value: 5.03 +/- 1.02 10^-3/min)” for “method”
HepG2 [23] = assay: Cytotoxicity against human HepG2 cells assessed as reduction in cell viability after 48 hrs by MTT assay; format: functional, cell-based; conditions: HepG2, 48 h
[24] = Ionophoric activity across pyranine dye encapsulated pH 7 egg yolk L-alpha-phosphatidylcholine-based liposomal membranes assessed as chloride ion transport by measuring induction of pH discharge at 1.95 x 10^-3 mol% after 20 mins in presence of KCl loaded external vesicles by fluorescence method
MCF7 [25] = assay: Cytotoxicity against human MCF7 cells assessed as reduction in cell viability at 50 uM after 48 hrs by MTT assay relative to control; format: functional; conditions: MCF7, 48 h
HeLa [26] = assay: Cytotoxicity against human HeLa cells assessed as reduction in cell viability after 48 hrs by MTT assay; format: functional, cell-based
[27] = Ionophoric activity across pyranine dye encapsulated pH 7 egg yolk L-alpha-phosphatidylcholine-based liposomal membranes assessed as bromide ion transport by measuring induction of pH discharge at 1.95 x 10^-3 mol% after 20 mins in presence of NaBr loaded external vesicles by fluorescence method
[28] = as §3, with “measuring initial rate constant for” for “measuring”, “method (reference value: 5.03 +/- 1.02 10^-3/min)” for “method”
[29] = Ionophoric activity across pyranine dye encapsulated pH 7 POPC-cholesterol-based liposomal membranes assessed as chloride ion transport by measuring induction of pH discharge at 7.81 x 10^-3mol% after 20 mins in presence of NaCl loaded external vesicles by fluorescence method
[30] = Ionophoric activity across lucigenin probe encapsulated pH 7 egg yolk L-alpha-phosphatidylcholine-based large unilamellar vesicles loaded with NaNO3 assessed as chloride ion efflux at 0.0625 to 1 mol% after 20 mins in presence of NaCl loaded external vesicles by fluorescence method
[31] = as §2, with “measuring initial rate constant for” for “measuring”, “discharge at 0.5 mol%” for “discharge”, “method (reference value: 5.03 +/- 1.02 10^-3/min)” for “method”
[32] = as §2, with “measuring initial rate constant for” for “measuring”, “discharge at 0.1250 mol%” for “discharge”, “method (reference value: 5.03 +/- 1.02 10^-3/min)” for “method”
[33] = Ionophoric activity across lucigenin probe encapsulated pH 7 egg yolk L-alpha-phosphatidylcholine-based large unilamellar vesicles loaded with Na2SO4 assessed as chloride ion efflux at 1 mol% after 20 mins in presence of NaCl/Na2SO4 loaded external vesicles by fluorescence method
[34] = Ionophoric activity across pyranine dye encapsulated pH 7 egg yolk L-alpha-phosphatidylcholine-based liposomal membranes assessed as chloride ion transport by measuring induction of pH discharge at 0.25 mol% after 20 mins in presence of RbCl loaded external vesicles by fluorescence method
[35] = Ionophoric activity across pyranine dye encapsulated pH 7 egg yolk L-alpha-phosphatidylcholine-based liposomal membranes assessed as chloride ion transport by measuring induction of pH discharge at 0.25 mol% after 20 mins in presence of CsCl loaded external vesicles by fluorescence method
[36] = Ionophoric activity across pyranine dye encapsulated pH 7 egg yolk L-alpha-phosphatidylcholine-based liposomal membranes assessed as iodide ion transport by measuring induction of pH discharge at 0.25 mol% after 20 mins in presence of NaI loaded external vesicles by fluorescence method
[37] = as §2, with “measuring initial rate constant for” for “measuring”, “discharge at 0.2500 mol%” for “discharge”, “method (reference value: 5.03 +/- 1.02 10^-3/min)” for “method”
[38] = Ionophoric activity across pyranine dye encapsulated pH 7 POPC-cholesterol-based liposomal membranes assessed as chloride ion transport by measuring induction of pH discharge at 1 mol% after 20 mins in presence of NaCl loaded external vesicles by fluorescence method
[39] = Ionophoric activity across lucigenin probe encapsulated pH 7 egg yolk L-alpha-phosphatidylcholine-based large unilamellar vesicles loaded with Na2SO4 assessed as chloride ion efflux at 1 mol% after 20 mins in presence of NaCl loaded external vesicles by fluorescence method
[40] = Ionophoric activity across pyranine dye encapsulated pH 7 egg yolk L-alpha-phosphatidylcholine-based liposomal membranes assessed as bromide ion transport by measuring induction of pH discharge at 0.25 mol% after 20 mins in presence of NaBr loaded external vesicles by fluorescence method
[41] = Ionophoric activity across pyranine dye encapsulated pH 7 egg yolk L-alpha-phosphatidylcholine-based liposomal membranes assessed as nitrate ion transport by measuring induction of pH discharge at 0.25 mol% after 20 mins in presence of NaNO3 loaded external vesicles by fluorescence method
[42] = Ionophoric activity across pyranine dye encapsulated pH 7 egg yolk L-alpha-phosphatidylcholine-based liposomal membranes assessed as chloride ion transport by measuring induction of pH discharge at 0.25 mol% after 20 mins in presence of LiCl loaded external vesicles by fluorescence method
[43] = as §2, with “measuring initial rate constant for” for “measuring”, “discharge at 0.0625 mol%” for “discharge”, “method (reference value: 5.03 +/- 1.02 10^-3/min)” for “method”
[44] = (§4) Ionophoric activity across pyranine dye encapsulated pH 7 egg yolk L-alpha-phosphatidylcholine-based liposomal membranes assessed as chloride ion transport by measuring induction of pH discharge at 0.25 mol% after 20 mins in presence of NaCl loaded external vesicles by fluorescence method
[45] = as §4, with “measuring initial rate constant for” for “measuring”, “1.0” for “0.25”, “method (reference value: 5.03 +/- 1.02 10^-3/min)” for “method”
[46] = Ionophoric activity across pyranine dye encapsulated pH 7 egg yolk L-alpha-phosphatidylcholine-based liposomal membranes assessed as chloride ion transport by measuring induction of pH discharge at 0.25 mol% after 20 mins in presence of KCl loaded external vesicles by fluorescence method

O=[N+]([O-])c1cc(-c2nc3ccc([N+](=O)[O-])cc3[nH]2)cc(-c2nc3ccc([N+](=O)[O-])cc3[nH]2)c1
Activity [1]: Active
fold change (FC) [2]: 2370
K [3]: 1.99 ×10⁻¹ /min
Activity [4]: Dose-dependent effect
EC50 [4]: 2.73 ×10⁻³ mol%
EC50 ([4]; read-out: EC50): 0.036 µM
IC50 (MCF7 [5]): 1.2 µM
Activity [6]: Active
IC50 (A549 [7]): 13.6 µM
inhibition at 50 µM (HepG2 [8]): 81.3%
Activity [9]: Active
K [10]: 1.35 ×10⁻² /min
Activity [11]: inactive
Activity [12]: Active
K [13]: 1.81 ×10⁻¹ /min
Ka [14]: 8.18 ×10³ /M
IC50 (L02): 44.9 µM
Activity [15]: inactive
Activity [16]: inactive
inhibition at 50 µM (A549 [17]): 78.7%
Activity [18]: inactive
K [19]: 6.25 ×10⁻² /min
Activity [20]: Active
inhibition at 50 µM (HeLa [21]): 94.1%
K [22]: 2.43 ×10⁻² /min
IC50 (HepG2 [23]): 11.1 µM
Activity [24]: Active
inhibition at 50 µM (MCF7 [25]): 94.7%
IC50 (HeLa [26]): 1.2 to 1.3 µM
Activity [27]: inactive
K [28]: 8.98 ×10⁻² /min
Activity [29]: inactive

O=[N+]([O-])c1cc(-c2nc3ccccc3[nH]2)cc(-c2nc3ccccc3[nH]2)c1
fold change (FC) [2]: 13
Activity [30]: Active
K [31]: 1.28 ×10⁻¹ /min
K [32]: 4.89 ×10⁻² /min
Activity [33]: inactive
Activity [34]: Active
Activity [35]: Active
Activity [4]: Dose-dependent effect
EC50 [4]: 0.49 mol%
EC50 ([4]; read-out: EC50): 6.5 µM
inhibition at 50 µM (HepG2 [8]): -2.6%
Activity [36]: inactive
K [37]: 6.81 ×10⁻² /min
Activity [12]: Active
Ka [14]: 3.94 ×10³ /M
Activity [38]: inactive
Activity [39]: inactive
Activity [40]: inactive
Activity [41]: inactive
inhibition at 50 µM (A549 [17]): 45.9%
Activity [42]: Active
inhibition at 50 µM (HeLa [21]): 42.5%
K [43]: 3.38 ×10⁻² /min
inhibition at 50 µM (MCF7 [25]): 48.2%
Activity [44]: Active
K [45]: 1.61 ×10⁻¹ /min
Activity [46]: Active
